From patent publication US20240336602A1 (Katholieke Universiteit Leuven, priority 2020, published 2024) come the findings set out here.

“And” between values parts separate entries of the source, which are not always exact repeats. Identical values can stand only once.

This assay has as its target T1, mouse TRPM3a2 (mTRPM3) ion channel (Mus musculus, UniProt J9SQF3).
T1 construct: expressed in transfected cells; host or cells: flip-in HEK293
Briefly: TRPM3 ion channel driven Ca2+ uptake, Fluo-4 AM assay (PS-stimulated, overexpressing flip-in HEK293 cells). The class given is cell-based. The protocol: In order to monitor the inhibition of the mouse TRPM3a2 (mTRPM3) ion channel by the compounds of the invention, a cellular system making use of an mTRPM3alpha2 or hTRPM3 overexpressing cell line (flip-in HEK293) was used. The TRPM3 channel was stimulated/opened with Pregnenolone sulfate (PS) (50 μM) which results in Ca^2+ influx.
For mTRPM3, the intracellular Ca^2+ was measured with a Calcium responsive dye, Fluor-4 AM ester (Invitrogen). Cells were cultured until a confluence of 80-90%, washed with Versene (Invitrogen) and detached from the surface by a short incubation with 0.05% Trypsin (Invitrogen). The trypsination process was stopped by the addition of complete cell culture medium (DMEM, glutamax, 10% FCS, NEAA, Pen-Strep). Cells were collected and resuspended in Krebs buffer without Calcium at RT.
Prior the cell seeding (±2000 cells/well into a black, 384 well plate (Greiner)) the diluted compound was added in the assay plate, together with the PS dissolved in Krebs buffer containing Calcium. […] Directly after cell addition the plates were read on an Envision fluorescence reader (Perkin Elmer) by an Excitation of 485 nm and emission at 535 nm.
Channel inhibition was calculated compared to a non-PS stimulated control versus a condition stimulated with PS (50 μM) with vehicle. The ability of the compounds of the invention to inhibit this activity was determined as: Percentage inhibition=[1-((RFU determined for sample with test compound present—RFU determined for sample with positive control inhibitor) divided by (RFU determined in the presence of vehicle—RFU determined for sample with positive control inhibitor))]*100.

[1] abbreviates: PS (50 μM) stimulated, cpds. 500-599.
The mark [2] stands for this setting: PS (50 μM) stimulated, cpds. 600-666.
Where [3] appears, read: PS (50 μM) stimulated, cpds. 667-751.
The mark [4] stands for this setting: PS (50 μM) stimulated, cpds. 400-499.
[5] abbreviates: PS (50 μM) stimulated, cpd 001-199.

T1 sequence (J9SQF3 1-1709 isoform J9SQF3-12): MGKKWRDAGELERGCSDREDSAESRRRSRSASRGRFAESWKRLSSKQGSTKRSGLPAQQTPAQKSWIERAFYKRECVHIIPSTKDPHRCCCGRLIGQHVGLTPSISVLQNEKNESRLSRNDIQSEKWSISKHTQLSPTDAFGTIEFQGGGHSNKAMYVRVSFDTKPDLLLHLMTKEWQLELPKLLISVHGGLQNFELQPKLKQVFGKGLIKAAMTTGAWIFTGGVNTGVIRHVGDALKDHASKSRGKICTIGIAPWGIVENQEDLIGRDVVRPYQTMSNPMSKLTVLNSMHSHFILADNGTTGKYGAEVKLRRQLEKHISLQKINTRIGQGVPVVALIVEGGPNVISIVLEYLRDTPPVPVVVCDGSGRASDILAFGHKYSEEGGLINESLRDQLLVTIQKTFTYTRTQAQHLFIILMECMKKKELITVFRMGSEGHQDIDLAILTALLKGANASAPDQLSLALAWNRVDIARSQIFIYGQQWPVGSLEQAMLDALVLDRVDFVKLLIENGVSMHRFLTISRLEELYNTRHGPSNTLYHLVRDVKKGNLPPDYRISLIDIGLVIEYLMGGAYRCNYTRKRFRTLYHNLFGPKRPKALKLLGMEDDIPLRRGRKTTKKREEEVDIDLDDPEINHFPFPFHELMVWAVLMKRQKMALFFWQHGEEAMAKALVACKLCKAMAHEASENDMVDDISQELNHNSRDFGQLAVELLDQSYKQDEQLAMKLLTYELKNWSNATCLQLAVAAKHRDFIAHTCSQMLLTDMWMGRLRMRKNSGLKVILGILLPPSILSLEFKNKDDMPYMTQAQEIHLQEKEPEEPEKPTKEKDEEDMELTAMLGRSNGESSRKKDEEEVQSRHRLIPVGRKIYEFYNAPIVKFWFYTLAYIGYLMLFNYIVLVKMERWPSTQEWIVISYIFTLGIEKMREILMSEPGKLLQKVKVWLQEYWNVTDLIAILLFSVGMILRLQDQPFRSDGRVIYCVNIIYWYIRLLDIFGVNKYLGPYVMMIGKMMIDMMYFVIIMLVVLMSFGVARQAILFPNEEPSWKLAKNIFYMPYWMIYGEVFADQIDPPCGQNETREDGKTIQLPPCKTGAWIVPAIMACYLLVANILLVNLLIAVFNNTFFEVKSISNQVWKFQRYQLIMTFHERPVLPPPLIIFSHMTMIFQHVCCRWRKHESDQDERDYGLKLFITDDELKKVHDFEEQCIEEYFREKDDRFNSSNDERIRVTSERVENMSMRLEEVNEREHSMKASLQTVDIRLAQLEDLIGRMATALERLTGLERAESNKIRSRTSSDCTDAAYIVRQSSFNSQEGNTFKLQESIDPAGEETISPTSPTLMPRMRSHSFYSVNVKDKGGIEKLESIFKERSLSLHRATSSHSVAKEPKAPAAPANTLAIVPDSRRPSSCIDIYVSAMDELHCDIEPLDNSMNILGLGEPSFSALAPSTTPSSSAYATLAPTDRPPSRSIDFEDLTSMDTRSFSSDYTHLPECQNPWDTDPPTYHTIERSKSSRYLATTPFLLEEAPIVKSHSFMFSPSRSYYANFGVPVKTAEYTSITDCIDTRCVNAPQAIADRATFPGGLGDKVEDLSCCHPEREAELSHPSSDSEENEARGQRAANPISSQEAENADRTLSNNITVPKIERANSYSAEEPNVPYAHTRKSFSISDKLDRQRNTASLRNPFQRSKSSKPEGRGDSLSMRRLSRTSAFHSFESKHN

For `Cc1ncc(COc2ccc3oc(C)c(C(=O)NC4(C(N)=O)CCOC4)c3c2)s1` (single isomer, unassigned) [592 - En 1], the IC50 under setting [1] is ≤ 1000 nM. Same read-out and setting: as for `Cc1ncsc1COc1ccc2oc(C)c(C(=O)NC3(C(N)=O)CCOC3)c2c1` (single isomer, unassigned) [593 - En 1], the figure is ≤ 1000 nM; as for `Cc1ccc(COc2ccc3oc(C)c(C(=O)NC4(C(N)=O)CCOC4)c3c2)cn1` (single isomer, unassigned) [594 - En 1], ≤ 1000 nM; as for `Cc1ccc(COc2ccc3oc(C)c(C(=O)NC4(C(N)=O)CCOC4)c3c2)cn1` (single isomer, unassigned) [594 - En 2], ≤ 1000 nM. On the same count and under the same terms, the figure for `Cc1oc2ccc(OCc3ccccn3)cc2c1C(=O)NC1(C(N)=O)CCOC1` (single isomer, unassigned) [595 - En 1] is ≤ 1000 nM; for `COc1ncccc1COc1ccc2oc(C)c(C(=O)NC3(C(N)=O)CCOC3)c2c1` (single isomer, unassigned) [597 - En 1] it is ≤ 1000 nM. With `Cc1oc2ccc(OCc3c(F)cnn3C)cc2c1C(=O)NC1(C(N)=O)CCOC1` (single isomer, unassigned) [598 - En 1], the IC50 under setting [1] is ≤ 1000 nM. In the case of `CNC(=O)C(CO)NC(=O)c1c(C)oc2ccc(OCc3scnc3C)cc12` (single isomer, unassigned) [600 - En 1], the IC50 under setting [2] was ≤ 1000 nM.

As to `CNC(=O)C(CO)NC(=O)c1c(C)oc2ccc(OCc3ccccn3)cc12` (single isomer, unassigned) [601 - En 1], the IC50 under setting [2] is ≤ 1000 nM. With `CNC(=O)C(CO)NC(=O)c1c(C)oc2ccc(OCc3ccccn3)cc12` (single isomer, unassigned) [601 - En 2], the IC50 under setting [2] was ≤ 1000 nM. As for `Cc1oc2ccc(OCc3cccnc3O)cc2c1C(=O)NC1CNCC1(F)F` (single isomer, unassigned) [640 - En 1], the IC50 under setting [2] was ≤ 1000 nM. As to `Cc1oc2ccc(OCc3ccnn3C)cc2c1C(=O)NC1COCC1O` (single isomer, unassigned) [655 - En 1], the IC50 under setting [2] was ≤ 1000 nM. As to `Cc1oc2ccc(OCc3ccnn3C)cc2c1C(=O)NC1COCC1O` (single isomer, unassigned) [655 - En 2], under setting [2], the IC50 is ≤ 1000 nM. For `Cc1oc2ccc(OCc3ccnn3C)cc2c1C(=O)NC1COCC1O` (single isomer, unassigned) [656 - En 1], the IC50 under setting [2] was in the range of 1000 to 20000 nM.

Take `Cc1oc2ccc(OCc3ccnn3C)cc2c1C(=O)NC1COCC1O` (single isomer, unassigned) [656 - En 2]: the IC50 under setting [2] was in the range of 1000 to 20000 nM. With `NC(=O)c1oc2ccc(OCc3cccnc3C(F)(F)F)cc2c1C(=O)NC1CCNCC1(F)F` (single isomer, unassigned) [657 - En 1, N3-(3,3-difluoropiperidin-4-yl)-5-((2-(trifluoromethyl)pyridin-3-yl)methoxy)benzofuran-2,3-dicarboxamide], the IC50 under setting [2] is ≥ 20000 nM. In the case of `Cc1oc2ccc(OCc3ccccn3)cc2c1C(=O)NC1(CO)CCCNC1=O` (single isomer, unassigned) [719 - En 1], the IC50 under setting [3] is ≤ 1000 nM. As to `COc1ncccc1COc1ccc2oc(C)c(C(=O)NC(C)(CO)C(N)=O)c2c1` (single isomer, unassigned) [720 - En 1], the IC50 under setting [3] is ≤ 1000 nM. Consider `Cc1ncc(COc2ccc3oc(C)c(C(=O)NC4(C(N)=O)CCOC4)c3c2)o1` (single isomer, unassigned) [725 - En 1], for which, under setting [3], the IC50 is ≤ 1000 nM. Under setting [3], `Cc1ncsc1COc1ccc2oc(C)c(C(=O)NC3(CO)CCNC3)c2c1` (single isomer, unassigned) [728 - En 1] showed an IC50 of 1000 to 20000 nM.

Regarding `Cc1ncsc1COc1ccc2oc(C)c(C(=O)NC3(CO)CCNC3)c2c1` (single isomer, unassigned) [728 - En 2], the IC50 under setting [3] was ≤ 1000 nM. As for `Cc1ncsc1COc1ccc2oc(C)c(C(=O)NC(Cn3cncn3)C(N)=O)c2c1` (single isomer, unassigned) [729 - En 1], the half-inhibitory concentration (IC50) under setting [3] was ≤ 1000 nM.

As for `Cc1ncsc1COc1ccc2oc(C)c(C(=O)NC(Cn3cncn3)C(N)=O)c2c1` (single isomer, unassigned) [729 - En 2], the IC50 under setting [3] was ≤ 1000 nM. As to `Cc1oc2ccc(OCc3c[nH]nc3C(F)(F)F)cc2c1C(=O)NC1(CO)CCCNC1=O` (single isomer, unassigned) [731 - En 1], the IC50 under setting [3] is ≤ 1000 nM. Still for that read-out and setting: as for `Cc1oc2ccc(OCc3ccnn3C)cc2c1C(=O)NC1(CO)CCCNC1=O` (single isomer, unassigned) [732 - En 1], the figure is ≤ 1000 nM; as for `Cc1oc2ccc(OCc3ccnn3C)cc2c1C(=O)NC1(CO)CCNC1=O` (single isomer, unassigned) [733 - En 1], ≤ 1000 nM.

As to `Cc1oc2ccc(OCc3cccnn3)cc2c1C(=O)NC1(CO)CCNC1=O` (single isomer, unassigned) [734 - En 1], under setting [3], the IC50 was ≤ 1000 nM. Still for that read-out and setting: the figure for `Cc1oc2ccc(OCc3cccnn3)cc2c1C(=O)NC1(CO)CCNC1=O` (single isomer, unassigned) [734 - En 2] is 1000 to 20000 nM; for `Cc1oc2ccc(OCc3ccc(F)cn3)cc2c1C(=O)NC1(CO)CCNC1=O` (single isomer, unassigned) [735 - En 1] it is ≤ 1000 nM; for `Cc1oc2ccc(OCc3cccnc3C(F)F)cc2c1C(=O)NC1(CO)CCNC1=O` (single isomer, unassigned) [736 - En 1] it is ≤ 1000 nM. Turning to `Cc1oc2ccc(OCc3cccnc3C(F)F)cc2c1C(=O)NC1(CO)CCCNC1=O` (single isomer, unassigned) [737 - En 1], under setting [3], the IC50 is ≤ 1000 nM.

On to `Cc1oc2ccc(OCc3ccnn3CC(F)F)cc2c1C(=O)NC1(C(N)=O)CCOC1` (single isomer, unassigned) [740 - En 1], for which the IC50 under setting [3] is ≤ 1000 nM. As for `Cc1oc2ccc(OCc3ccnn3CC(F)F)cc2c1C(=O)NC1(C(N)=O)CCOC1` (single isomer, unassigned) [740 - En 2], the IC50 under setting [3] is ≤ 1000 nM.

As to `Cc1oc2ccc(OCc3cccnc3O)cc2c1C(=O)NC1COCC1O` (centres unmarked) [350 - En 1], the half-inhibitory concentration (IC50) (PS (50 μM) stimulated Ca2+ influx, HEK293, cpds 300-399) is ≤ 1000 nM. As for `Cc1ncc(COc2ccc3oc(C)c(C(=O)N[C@@H](CO)c4nc5ccccc5[nH]4)c3c2)s1` [401 - En 1, (R)-N-(1-(1H-benzo[d]imidazol-2-yl)-2-hydroxyethyl)-2-methyl-5-((2-methylthiazol-5-yl)methoxy)benzofuran-3-carboxamide], the IC50 under setting [4] was ≤ 1000 nM.

For `Cc1ncsc1COc1ccc2oc(C)c(C(=O)NC3CCN(CCOCCO)C3=O)c2c1` (centres unmarked) [402 - En 1], under setting [4], the IC50 fell in the range of 1000 to 20000 nM. With `Cc1ncc(COc2ccc3oc(C)c(C(=O)NC(C)C(N)=O)c3c2)s1` (centres unmarked) [434 - En 2], the IC50 under setting [4] was ≤ 1000 nM. On the same count and under the same terms, the figure for `Cc1oc2ccc(OCc3ccccn3)cc2c1C(=O)NC(C)C(N)=O` (centres unmarked) [435 - En 2] is ≤ 1000 nM; for `Cc1ncsc1COc1ccc2oc(C)c(C(=O)NC(COC(F)F)C(N)=O)c2c1` (centres unmarked) [448 - En 1] it is ≤ 1000 nM. Take `Cc1oc2ccc(OCc3ccccn3)cc2c1C(=O)NC(CO)C(N)=O` (centres unmarked) [455 - En 2]: the IC50 under setting [4] was ≤ 1000 nM. Turning to `Cc1ncsc1COc1ccc2oc(C)c(C(=O)NC(CCO)C(N)=O)c2c1` (centres unmarked) [469 - En 1], under setting [4], the IC50 is ≤ 1000 nM.

Take `Cc1ncc(COc2ccc3oc(C)c(C(=O)NC4(CO)CCNC4=O)c3c2)o1` (centres unmarked) [515 - En 1]: under setting [1], the IC50 is ≤ 1000 nM and 1000 to 20000 nM. The same measure, in the same setting: the figure for `Cc1ncc(COc2ccc3oc(C)c(C(=O)NC4(CO)CCNC4=O)c3c2)s1` (centres unmarked) [517 - En 1] is ≤ 1000 nM; for `Cc1ncsc1COc1ccc2oc(C)c(C(=O)NCC(C(N)=O)N(C)C)c2c1` (centres unmarked) [575 - En 1] it is ≤ 1000 nM. `Cc1oc2ccc(OCc3nccn3C)cc2c1C(=O)NC1COCC1O` (centres unmarked) [653 - En 1] showed an IC50 under setting [2] of 1000 to 20000 nM.

Under setting [2], `Cc1oc2ccc(OCc3nccn3C)cc2c1C(=O)NC1COCC1O` (centres unmarked) [654 - En 2] gave an IC50 of 1000 to 20000 nM. Regarding `Cc1oc2ccc(OCc3nccs3)cc2c1C(=O)NC1CCNC1=O` (centres unmarked) [compound 036, 2-methyl-N-(2-oxopyrrolidin-3-yl)-5-(thiazol-2-ylmethoxy)benzofuran-3-carboxamide], the IC50 under setting [5] is ≤ 1000 nM. As for `COc1ncccc1COc1ccc2oc(C)c(C(=O)NC3CCNC3=O)c2c1` (centres unmarked) [compound 046, 5-((2-methoxypyridin-3-yl)methoxy)-2-methyl-N-(2-oxopyrrolidin-3-yl)benzofuran-3-carboxamide], the IC50 under setting [5] is ≤ 1000 nM. As to `Cc1ncsc1COc1cc(F)c2oc(C)c(C(=O)NC3(CO)CCOCC3)c2c1` [compound 122, 7-fluoro-N-(4-(hydroxymethyl)tetrahydro-2H-pyran-4-yl)-2-methyl-5-((4-methylthiazol-5-yl)-methoxy)benzofuran-3-carboxamide], under setting [5], the IC50 fell in the range of 1000 to 20000 nM.

Consider `Cc1cc2oc(C)c(C(=O)NC3(CO)CCOCC3)c2cc1OCc1scnc1C` [compound 185, N-(4-(hydroxymethyl)tetrahydro-2H-pyran-4-yl)-2,6-dimethyl-5-((4-methylthiazol-5-yl)methoxy)-benzofuran-3-carboxamide], for which, under setting [5], the IC50 lay in the range of 1000 to 20000 nM.

As usually defined, the IC50 is the point on the concentration scale where inhibition reaches its midpoint. A high value points to weaker potency in that assay.
